Test results reported in paper PMC11178805, “Ligand-based design of [^18F]OXD-2314 for PET imaging in non-Alzheimer’s disease tauopathies” (Nature Communications, 2024).

Experiment: Dynamic PET imaging with [^18F]OXD-2314 in baboons
Assay type: in vivo
Conditions: for Cerebellum SUV / Cortex SUV / Striatum SUV / Whole Brain SUV: PET time-activity curve, Figure S18; for whole brain peak uptake: n = 1
Procedure: Dynamic PET imaging was performed in a rhesus macaque (macaca mulatta) monkey following the injection of [^18F]OXD-2314 at baseline (104.9 MBq, n = 1) and was repeated in a second [^18F]OXD-2314 study (115.8 MBq, n = 1) where a displacing dose of unlabeled OXD-2314 (0.5 mg/kg) was administered 10 min after [^18F]OXD-2314 injection to verify the absence of specific binding in NHP brain. Venous blood samples were drawn to characterize the metabolic fate of [^18F]OXD-2314 in the macaque. Dynamic [^18F]OXD-2314 PET imaging was also performed in a male (106.6 MBq, n = 1) and a female (115.8 MBq, n = 1) baboon (papio anubis), and venous blood samples were drawn in both baboons to characterize potential effects of sex on radiometabolism. Bilateral regions of interest were defined on 5–8 contiguous axial image planes for the lateral temporal cerebral cortex, cerebellum, striatum, and whole brain, which were used to sample dynamic [^18F]OXD-2314 PET images to determine the time-varying radioactivity concentration expressed in SUV units. [^18F]OXD-2314 readily entered macaque brain (whole brain peak ~2.2 SUV at ~2 min) and distributed uniformly throughout cortical and subcortical grey matter regions (Fig. 5A). […] Radiometabolite analysis of macaque venous blood identified only one, polar radiometabolite, which increased from 37% at 10 min to 77% at 90 min post-injection and was not likely brain penetrant (Figs. S19, S20).
The rate of uptake and clearance of [^18F]OXD-2314 in the brains of a male and a female baboon were compared (Fig. 6A). Initial whole brain uptake was rapid in both baboons, with peak uptake achieved in ~2 min with an SUV of ~2.8 in the male baboon and an SUV of ~1.9 in the female baboon. […] It is not known whether the higher initial brain uptake of [^18F]OXD-2314 observed in a male baboon is due to sex differences, normal physiologic variability, or the additional variability introduced by the effects of anesthesia. No evidence of elevated uptake or retention in the baboon striatum following [^18F]OXD-2314 injection was observed (Fig. S16), a region where high levels of PSP and CBD pathology are expected. Therefore, the normal brain retention patterns of [^18F]OXD-2314 are unlikely to confound the detection of specific signal from PSP and CBD pathology in human subjects.
NHP imaging studies in a male (13 kg) macaca mulata monkey and male (25.7 kg) and female (14.2 kg) papio anubis baboons were carried out in accordance with the guidelines set forth by the Institutional Animal Care and Use Committee at the University of Pittsburgh. Additional details regarding the maintenance of an active environmental enrichment program for the housed NHPs are described in Supplemental Information. Dynamic [^18F]OXD-2314 PET imaging of the brains of the isoflurane anesthetized NHPs was performed using a Siemens Biograph mCT Flow 64-4 R PET/CT scanner ([…], maximum intrinsic spatial resolution of 4.3 mm FWHM[53]. Following a low-dose CT scan for attenuation correction of PET emission data, [^18F]OXD-2314 was injected intravenously and emission data were acquired in list-mode for a period of 90 min. Emission data were binned into a dynamic series of 32 frames (20 sec-10 min) and reconstructed using filtered back projection with Fourier rebinning (FORE + FBP) with standard corrections applied that included attenuation, scatter, electronics dead-time, and physical decay.

With CO[C@H]1CCCN(c2ccc(-c3cc4cc(O)ccc4[nH]3)c([18F])n2)C1 [[^18F]OXD-2314] the “Cerebellum SUV” value (Time 2.75 min) was 3.523 SUV, the “Cortex SUV” value (Time 2.75 min) was 3.036 SUV and the “Striatum SUV” value (Time 2.75 min) was 3.616 SUV. For the same compound, the “Whole Brain SUV” value (Time 2.75 min) was 2.828 SUV, the “Cerebellum SUV” value (Time 3.25 min) was 3.2566 SUV and the “Cortex SUV” value (Time 3.25 min) was 2.891 SUV. For the same compound, the “Striatum SUV” value (Time 3.25 min) was 3.337 SUV, the “Whole Brain SUV” value (Time 3.25 min) was 2.7269 SUV and the “Cerebellum SUV” value (Time 3.75 min) was 3.5333 SUV. For the same compound, the “Cortex SUV” value (Time 3.75 min) was 2.848 SUV, the “Striatum SUV” value (Time 3.75 min) was 3.315 SUV and the “Whole Brain SUV” value (Time 3.75 min) was 2.707 SUV. The “Cerebellum SUV” value (Time 4.5 min) was 3.317 SUV, the “Cortex SUV” value (Time 4.5 min) was 2.817 SUV and the “Striatum SUV” value (Time 4.5 min) was 3.072 SUV. The “Whole Brain SUV” value (Time 4.5 min) was 2.623 SUV, the “Cerebellum SUV” value (Time 5.5 min) was 2.973 SUV and the “Cortex SUV” value (Time 5.5 min) was 2.612 SUV. For the same compound, the “Striatum SUV” value (Time 5.5 min) was 3.02 SUV, the “Whole Brain SUV” value (Time 5.5 min) was 2.516 SUV and the “Cerebellum SUV” value (Time 6.5 min) was 2.884 SUV. The “Cortex SUV” value (Time 6.5 min) was 2.534 SUV, the “Striatum SUV” value (Time 6.5 min) was 2.784 SUV and the “Whole Brain SUV” value (Time 6.5 min) was 2.429 SUV. The “Cerebellum SUV” value (Time 8 min) was 2.424 SUV, the “Cortex SUV” value (Time 8 min) was 2.368 SUV and the “Striatum SUV” value (Time 8 min) was 2.423 SUV. For the same compound, the “Whole Brain SUV” value (Time 8 min) was 2.257 SUV, the “Cerebellum SUV” value (Time 10 min) was 2.417 SUV and the “Cortex SUV” value (Time 10 min) was 2.197 SUV. The “Striatum SUV” value (Time 10 min) was 2.581 SUV, the “Whole Brain SUV” value (Time 10 min) was 2.094 SUV and the “Cerebellum SUV” value (Time 12 min) was 2.068 SUV. For the same compound, the “Cortex SUV” value (Time 12 min) was 2.057 SUV, the “Striatum SUV” value (Time 12 min) was 2.198 SUV and the “Whole Brain SUV” value (Time 12 min) was 1.998 SUV. The “Cerebellum SUV” value (Time 14 min) was 2.062 SUV, the “Cortex SUV” value (Time 14 min) was 1.889 SUV and the “Striatum SUV” value (Time 14 min) was 1.943 SUV. The “Whole Brain SUV” value (Time 14 min) was 1.8928 SUV, the “Cerebellum SUV” value (Time 17.5 min) was 1.827 SUV and the “Cortex SUV” value (Time 17.5 min) was 1.768 SUV. For the same compound, the “Striatum SUV” value (Time 17.5 min) was 1.893 SUV, the “Whole Brain SUV” value (Time 17.5 min) was 1.748 SUV and the “Cerebellum SUV” value (Time 22.5 min) was 1.519 SUV. For the same compound, the “Cortex SUV” value (Time 22.5 min) was 1.5637 SUV, the “Striatum SUV” value (Time 22.5 min) was 1.618 SUV and the “Whole Brain SUV” value (Time 22.5 min) was 1.572 SUV. For the same compound, the “Cerebellum SUV” value (Time 27.5 min) was 1.345 SUV, the “Cortex SUV” value (Time 27.5 min) was 1.403 SUV and the “Striatum SUV” value (Time 27.5 min) was 1.574 SUV. For the same compound, the “Whole Brain SUV” value (Time 27.5 min) was 1.421 SUV, the “Cerebellum SUV” value (Time 32.5 min) was 1.261 SUV and the “Cortex SUV” value (Time 32.5 min) was 1.245 SUV. The “Striatum SUV” value (Time 32.5 min) was 1.235 SUV, the “Whole Brain SUV” value (Time 32.5 min) was 1.295 SUV and the “Cerebellum SUV” value (Time 37.5 min) was 1.135 SUV. The “Cortex SUV” value (Time 37.5 min) was 1.17 SUV, the “Striatum SUV” value (Time 37.5 min) was 1.248 SUV and the “Whole Brain SUV” value (Time 37.5 min) was 1.205 SUV. The “Cerebellum SUV” value (Time 42.5 min) was 1.059 SUV, the “Cortex SUV” value (Time 42.5 min) was 1.067 SUV and the “Striatum SUV” value (Time 42.5 min) was 1.112 SUV. The “Whole Brain SUV” value (Time 42.5 min) was 1.107 SUV, the “Cerebellum SUV” value (Time 47.5 min) was 1.003 SUV and the “Cortex SUV” value (Time 47.5 min) was 0.9766 SUV. The “Striatum SUV” value (Time 47.5 min) was 0.9755 SUV, the “Whole Brain SUV” value (Time 47.5 min) was 1.028 SUV and the “Cerebellum SUV” value (Time 52.5 min) was 0.8116 SUV. For the same compound, the “Cortex SUV” value (Time 52.5 min) was 0.9384 SUV, the “Striatum SUV” value (Time 52.5 min) was 0.9527 SUV and the “Whole Brain SUV” value (Time 52.5 min) was 0.9734 SUV. For the same compound, the “Cerebellum SUV” value (Time 57.5 min) was 0.7605 SUV, the “Cortex SUV” value (Time 57.5 min) was 0.8664 SUV and the “Striatum SUV” value (Time 57.5 min) was 0.8933 SUV. The “Whole Brain SUV” value (Time 57.5 min) was 0.9139 SUV, the “Cerebellum SUV” value (Time 62.5 min) was 0.7211 SUV and the “Cortex SUV” value (Time 62.5 min) was 0.8233 SUV. For the same compound, the “Striatum SUV” value (Time 62.5 min) was 0.8081 SUV, the “Whole Brain SUV” value (Time 62.5 min) was 0.8807 SUV and the “Cerebellum SUV” value (Time 67.5 min) was 0.724 SUV. The “Cortex SUV” value (Time 67.5 min) was 0.803 SUV, the “Striatum SUV” value (Time 67.5 min) was 0.7461 SUV and the “Whole Brain SUV” value (Time 67.5 min) was 0.8223 SUV. The “Cerebellum SUV” value (Time 72.5 min) was 0.6837 SUV, the “Cortex SUV” value (Time 72.5 min) was 0.7452 SUV and the “Striatum SUV” value (Time 72.5 min) was 0.6547 SUV. For the same compound, the “Whole Brain SUV” value (Time 72.5 min) was 0.7875 SUV, the “Cerebellum SUV” value (Time 77.5 min) was 0.6351 SUV and the “Cortex SUV” value (Time 77.5 min) was 0.7071 SUV. For the same compound, the “Striatum SUV” value (Time 77.5 min) was 0.5968 SUV, the “Whole Brain SUV” value (Time 77.5 min) was 0.7547 SUV and the “Cerebellum SUV” value (Time 82.5 min) was 0.6873 SUV. The “Cortex SUV” value (Time 82.5 min) was 0.6833 SUV, the “Striatum SUV” value (Time 82.5 min) was 0.7378 SUV and the “Whole Brain SUV” value (Time 82.5 min) was 0.7187 SUV. For the same compound, the “Cerebellum SUV” value (Time 87.5 min) was 0.5841 SUV, the “Cortex SUV” value (Time 87.5 min) was 0.6805 SUV and the “Striatum SUV” value (Time 87.5 min) was 0.6765 SUV. The “Whole Brain SUV” value (Time 87.5 min) was 0.6934 SUV, the “time to peak whole brain uptake” value (both baboons) was ~ 2 min and the “2:90 min SUV ratio” value (female baboon) was ~ 3.6. For the same compound, the “whole brain peak uptake” value (female baboon) was ~ 1.9 SUV, the “2:90 min SUV ratio” value (male baboon) was ~ 3.7 and the “whole brain peak uptake” value (male baboon) was ~ 2.8 SUV.
